Consider one compound from publication PMC7316778 (Nature Communications, 2020).

Each structure is given as a SMILES string.

What all share (set-up): human FES cDNA encoding residues 448–822 or human FER cDNA encoding residues 448–820 was amplified by PCR; made in house; host or cells: E. coli BL21(DE3), co-expressing YopH phosphatase
The target of assay [1] is T1, FES^S700C (Homo sapiens, UniProt P07332, S700C). As to the kind of experiment: MS identification of covalent inhibitor-peptide adduct. The note with it: 1 μM, 30 min, rt. On the procedure:
Purified FES^S700C (1.2 μg in 38 μL) was treated with WEL028 (2 μL of 20× concentrated stock in DMSO, 1 μM final concentration) or vehicle (as negative control) for 30 min at rt. […] Gel was stained using Coomassie Brilliant Blue R-250, bands were cut out of gel into small blocks and then destained in 500 μL of 50% MeOH in 100 mM NH4HCO3 pH 8.0 for 10 min at rt. Acetonitrile (500 μL) was added for gel blocks dehydration, after which gel blocks were digested with sequencing-grade trypsin (Promega) in 250 μL trypsin buffer (100 mM Tris pH 7.5, 100 mM NaCl, 1 mM CaCl2, 10% acetonitrile) overnight at 37 °C with vigorous shaking. […] Samples were subsequently desalted using StageTips with C18 material. […]
Tryptic peptides were analyzed on a Surveyor nano-LC system (Thermo) hyphenated to a LTQ-Orbitrap mass spectrometer (Thermo) (n = 1)[69]. […] Samples of 10 µl were separated via a trap-elute setup at 250 nL/min flow and analyzed by data-dependent acquisition of one full scan/ top 3 method. For shotgun proteomics, fragmented precursor ions measured twice within 10 s were dynamically excluded for 60 s and ions with z < 2 or unassigned charges were not analyzed. Peptide ID was determined with the Mascot search engine. […]

In assay [2] the target is T1, FES^S700C. As to the kind of experiment: PamChip microarray peptide phosphorylation. The assay is classed as biochemical. To be noted: for Mean signal, time course: Figure 7f, S700C + WEL028, n 3.
The target in assay [3] is T1, FES^S700C. As to the kind of experiment: In vitro TR-FRET kinase assay. The note with it: TR-FRET assay, 5 µM ATP; n = 3; read-out: pIC50 FES^S700C (converted). The class given is biochemical. On the technique in general: TR-FRET usually uses a lanthanide donor and a delayed reading to cut background.

T1 sequence (P07332 448-822 S700C): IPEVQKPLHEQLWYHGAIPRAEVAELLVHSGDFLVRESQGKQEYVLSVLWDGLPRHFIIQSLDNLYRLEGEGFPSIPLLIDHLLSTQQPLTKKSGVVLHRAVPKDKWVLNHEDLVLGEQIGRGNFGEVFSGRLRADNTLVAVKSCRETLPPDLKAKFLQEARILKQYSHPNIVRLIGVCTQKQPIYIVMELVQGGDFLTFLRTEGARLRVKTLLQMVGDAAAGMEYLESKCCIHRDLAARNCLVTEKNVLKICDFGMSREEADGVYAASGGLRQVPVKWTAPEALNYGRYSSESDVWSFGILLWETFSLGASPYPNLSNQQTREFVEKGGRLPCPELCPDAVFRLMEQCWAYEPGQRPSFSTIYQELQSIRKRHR

On to `C#CCOc1ccc(Nc2ncc(Cl)c(Nc3ccccc3NC(=O)C=C)n2)c(OC)c1` [Compound 6], for which the “Covalent adduct by LC-MS/MS” value at FES^S700C [1] is given as “covalent addition of WEL028 to Cys700”. Also, the “Mean signal, time course” value was -48.0 on FES^S700C [2] (time 0 min); -46.0 on FES^S700C [2] (time 5 min); -41.0 on FES^S700C [2] (time 10 min); -40.0 on FES^S700C [2] (time 15 min); -38.0 on FES^S700C [2] (time 20 min); -35.0 on FES^S700C [2] (time 25 min). The “Mean signal, time course” value on FES^S700C [2] (time 30 min) is given as -33.0; on FES^S700C [2] (time 35 min), -32.0; at FES^S700C [2] (time 40 min) it was -32.0; on FES^S700C [2] (time 45 min), -30.0; at FES^S700C [2] (time 50 min) it was -26.0; on FES^S700C [2] (time 55 min), -29.0. Besides, on FES^S700C [2] (time 60 min), the “Mean signal, time course” value is -29.0. Moreover, the ZAP70 peptide phosphorylation result on FES^S700C [2] (WEL028 100 nM) is reported as “abolished peptide phosphorylation”. On FES^S700C [3], the IC50 was 3.98 nM.
